The results in this text go back to patent US7138406B2, “Modulators of the glucocorticoid receptor” (Pfizer, Inc., priority 2002, dated 2006).

In one data set the test system is MMP-1 (Matrix Metalloproteinase-1) production. In words: glucocorticoid inhibition of IL-1 induced MMP-1 production in human chondrosarcoma cells. In kind it is cell-based. The following applies: SW1353 human chondrosarcoma cells, 20 ng/ml IL-1 beta, 72 hours after IL-1 addition, ELISA; read-out: IC50, inhibitor of MMP1 expression. As to the method:
(§1) This assay, the glucocorticoid inhibition of IL-1 (Interleukin-1) induced MMP-1 (Matrix Metalloproteinase-1) and IL-8 (Interleukin-8) production in human chondrosarcoma cells, is conducted as follows: SW1353 human chondrosarcoma cells (obtained from ATCC) from passage 12 through passage 19 are used in a 96 well format assay. Cells are plated at confluence into 96 well plates in DMEM (Dulbecco's Modified Eagle Medium) with 10% fetal bovine serum and incubated at 37° C., 5% CO2. After 24 hours, serum containing media is removed and replaced with 200 ul/well DMEM containing 1 mg/L insulin, 2 g/L lactalbumin hydrosylate, and 0.5 mg/L ascorbic acid and returned to incubation at 37° C., 5% CO2. […] IL-8 production is assessed using the Quantikine human IL-8 ELISA kit from R&D Systems (D8050) on samples diluted 60-fold in RD5P Calibrator Diluent, following the manufacturer's protocol. The percent of the average IL-1 control is determined for the average of each of the triplicate samples following subtraction of the average signal from untreated cells. IC50's are determined from log linear plots of the percent of control versus the concentration of inhibitor. […] MMP-1 production is assessed via the Bio-Trak MMP-1 ELISA kit from Amersham (RPN2610) on 100 ul of neat sample following the manufacturer's protocol. […]
In general terms: In an ELISA, binding on a coated surface is turned into a signal by an enzyme label.
As usually defined, the IC50 is the concentration that gives 50% inhibition. On to `C[C@@H]1C[C@H]2[C@@H]3CCC4=CC(=O)C=C[C@]4(C)[C@@]3(F)[C@@H](O)C[C@]2(C)[C@@]1(O)C(=O)CO` [Dexamethasone, (11β,16α)-9-fluoro-11,17,21-trihydroxy-16-methylpregna-1,4-diene-3,20-dione], for which the IC50 is 5 nM.

Test system in the next data set: not given
Assay: not given
Settings: not given
A word on the melting point: it is the temperature, or range, at which the solid turns liquid. The compound `CC[C@@]12C[C@@](C)(O)[C@](O)(c3ccccc3)C[C@H]1CCc1cc(OCC(=O)O)ccc12` [Example 70, (4bR,6R,7R,8aR)-(4b-Ethyl-6,7-dihydroxy-6-methyl-7-phenyl-4b,5,6,7,8,8a,9,10-octahydro-phenanthren-2-yloxy)-acetic acid] showed a melting point of 190 to 191 °C.

Compound `CC[C@@]12C[C@H](N)[C@](O)(c3ccccc3)C[C@H]1CCc1cc(O)ccc12` [Example 41, (2R,3S,4aR,10aR)-3-Amino-4a-ethyl-2-phenyl-1,2,3,4,4a,9,10,10a-octahydro-phenanthrene-2,7-diol] showed a melting point of 209 to 210 °C.

Take `CC[C@@]12C[C@H](O)[C@](O)(c3c(F)cccc3F)C[C@H]1CCc1cc(O)ccc12` [Example 35, (2R,3S,4aR,10aR)-2-(2,6-difluorophenyl)-4a-ethyl-1,2,3,4,4a,9,10,10a-octahydrophenanthrene-2,3,7-triol]: the melting point fell in the range of 198 to 200 °C.

The compound `CC[C@@]12C[C@@](C)(O)[C@](O)(c3ccccc3)C[C@H]1CCc1cc(OCc3nnn[nH]3)ccc12` [Example 76, (2R,3R,4aR,10aR)-4a-Ethyl-3-methyl-2-phenyl-7-(1H-tetrazol-5-ylmethoxy)-1,2,3,4,4a,9,10,10a-octahydro-phenanthrene-2,3-diol] came in with a melting point of 108 to 110 °C.

`CC[C@@]12C[C@H](O)[C@](O)(c3c(F)cccc3F)C[C@H]1CCc1cc(OCc3cccnc3C)ccc12` (hydrate or solvate) [Example 56, (2R,3S,4aR,10aR)-2-(2,6-Difluoro-phenyl)-4a-ethyl-7-(2-methyl-pyridin-3-ylmethoxy)-1,2,3,4,4a,9,10,10a-octahydro-phenanthrene-2,3-diol]: the melting point fell in the range of 80 to 83 °C.

`CC[C@@]12C[C@@](C)(O)[C@](O)(c3ccccc3)C[C@H]1CCc1cc(OCC(C)(C)O)ccc12` [Example 73, (2R,3R,4aR,10aR)-4a-Ethyl-7-(2-hydroxy-2-methyl-propoxy)-3-methyl-2-phenyl-1,2,3,4,4a,9,10,10a-octahydro-phenanthrene-2,3-diol] had a melting point of 190 to 193 °C.

Consider `CC[C@@]12C[C@](O)(C(C)C)[C@](O)(c3ccccc3)C[C@H]1CCc1cc(O)ccc12` [Example 49], for which the melting point was 236 to 237 °C.

A further data set has as its system IL-8 (Interleukin-8) production. In words: glucocorticoid inhibition of IL-1 induced IL-8 production in human chondrosarcoma cells. It is filed as cell-based. The following applies: SW1353 human chondrosarcoma cells, 20 ng/ml IL-1 beta, 24 hours after addition of IL-1, ELISA; read-out: IC50, inhibitor of IL-8 expression. How it is done: as §1
Regarding `C[C@@H]1C[C@H]2[C@@H]3CCC4=CC(=O)C=C[C@]4(C)[C@@]3(F)[C@@H](O)C[C@]2(C)[C@@]1(O)C(=O)CO` [Dexamethasone, (11β,16α)-9-fluoro-11,17,21-trihydroxy-16-methylpregna-1,4-diene-3,20-dione], the IC50 was found to be 5 nM.
